Literature values, collected in patent US11253518B2, “Methods and compositions for the treatment of hair loss” (Aneira Pharma, Inc., priority 2019, dated 2022).
pEC50: −log10 of the molar value. In brackets after ≈: the same amount, converted by molar mass. Like-named read-outs stand apart in the source and are kept apart here. One block for each compound: values may come before it.

Tests used:
[1] = tested on: hair growth; details: for hair growth: McCarey 2004
[2] = tested on: production of dihydrotestosterone (DHT); details: oral; including prostate gland and scalp
[3] = not given; remark: listed apart in the source
[4] = tested on: elevated intraocular pressure; details: glaucomatous monkeys; Gagliuso 2004
[5] = tested on: elevated intraocular pressure; details: some human glaucoma patients; Gandolfi 2003
[6] = believed
[7] = biological target: T1, human FP receptors (Homo sapiens, UniProt P43088)
T1 sequence (P43088 whole entry): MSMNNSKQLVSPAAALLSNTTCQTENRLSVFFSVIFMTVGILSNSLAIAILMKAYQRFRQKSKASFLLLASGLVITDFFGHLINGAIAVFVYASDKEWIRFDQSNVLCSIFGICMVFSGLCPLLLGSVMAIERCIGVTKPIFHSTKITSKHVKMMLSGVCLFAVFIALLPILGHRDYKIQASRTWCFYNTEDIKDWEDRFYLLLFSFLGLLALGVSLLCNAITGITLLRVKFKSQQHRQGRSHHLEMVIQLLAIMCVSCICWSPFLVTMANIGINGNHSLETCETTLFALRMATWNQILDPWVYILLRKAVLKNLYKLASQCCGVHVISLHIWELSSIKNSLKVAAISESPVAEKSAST

[8] = biological target: T1, human FP receptors; remark: listed apart in the source

stable for (acidic or basic aqueous solutions): no more than 48 hours
stable for (neutral aqueous solutions, room temperature): up to one month
solubility ([3]; 1:4 solution of ethanol:PBS (pH 7.2)): 400 µg/mL (≈ 925 µM)
solubility ([3]; PBS (pH 7.2)): approximately 50 μg/mL
solubility ([3]; propylene glycol, methanol, ethanol and 2-propanol): ≥ 5%
SMILES: CC(C)OC(=O)CCC/C=C\C[C@@H]1[C@@H](CC[C@@H](O)CCc2ccccc2)[C@H](O)C[C@@H]1O [latanoprost, isopropyl ester of 17-phenyl-13,14-dihydro prostaglandin F2a]

amount converted into bimatoprost free acid [6]: under 5%
SMILES: CCNC(=O)CCC/C=C\C[C@@H]1[C@@H](/C=C/[C@@H](O)CCc2ccccc2)[C@H](O)C[C@@H]1O [bimatoprost, Bimatoprost]
effect on intraocular pressure together with latanoprost [4]: additive
reduction of elevated intraocular pressure in latanoprost non-responders [5]: responsive

potency as FP receptor ligand relative to latanoprost [7]: two-hundred times more potent
potency relative to PGF2α [8]: twice the potency
pEC50 ([8]; FP receptor agonist): 8.44
SMILES: O=C(O)CCC/C=C\C[C@@H]1[C@@H](CC[C@@H](O)CCc2ccccc2)[C@H](O)C[C@@H]1O [Latanoprost free acid]

More lines, now with the values behind:

SMILES: CCCCCCCC(=O)CC[C@@H]1[C@@H](C/C=C\CCCC(=O)OC(C)C)[C@@H](O)C[C@H]1O [Uenoprostone isopropyl ester, Unoprostone isopropyl ester]
incidence of iris pigmentation and eyelash changes ([1]; 0.15%, two randomized clinical trials): Low incidence
hair growth [1]: no hair growth

SMILES: CCCCCCCC(=O)CC[C@@H]1[C@@H](C/C=C\CCCC(=O)O)[C@@H](O)C[C@H]1O [uenoprostone free acid]
hair growth [1]: no hair growth

SMILES: CC(C)(C)NC(=O)[C@H]1CC[C@H]2[C@@H]3CC[C@H]4NC(=O)C=C[C@]4(C)[C@H]3CC[C@]12C [finasteride, (1S,3aS,3bS,5aR,9aR,9bS,11aS)-N-tert-butyl-9a,11a-dimethyl-7-oxo-1,2,3,3a,3b,4,5,5a,6,9b,10,11-dodecahydroindeno[5,4-f]quinoline-1-carboxamide]
decrease of production of dihydrotestosterone (DHT) [2]: about 70%
